According to patent US20260062420A1, “NOVEL DPP1 INHIBITORS AND USES THEREOF” (Insmed Incorporated, priority 2022, published 2026):
Read-outs that look alike come from different tables or passages of the source.

Legend:
[1] = molecular target: active mouse DPP1 enzyme (Mus musculus (Mouse), UniProt P97821); test: Mouse DPP1 Enzyme IC50 Assay; assay type: biochemical
Experimental: Test articles were applied to active mouse DPP1 enzyme (R&D Systems; Minneapolis, MN) in Assay Buffer (50 mM MES pH 5.5, 50 mM NaCl, 5 mM DTT) in a total reaction volume of 125 μL. 25 μL of compound in Assay Buffer plus 5% DMSO was first added to 50 μL of active mouse DPP1 enzyme at a concentration of 62.5 pg/μL and allowed to pre-incubate for 10 minutes at 37° C. after which 50 μL of 1000 μM H-Gly-Arg-AMC substrate (Bachem; St. Torrance, CA) was added, giving final substrate concentration of 400 μM and a final DMSO concentration of 1%. Substrate cleavage was measured for 90 minutes at 37° C., with fluorescence at Excitation/Emission 350/450 nm measured every 5 minutes. DPP1 concentration was interpolated based on its activity relative to a standard curve of recombinant active mouse DPP1 enzyme. IC50 values for each compound were calculated via the XLFit (IDBS Version 5.3.1.3) Add-On to Microsoft Excel using the four parameter fit equation y=(A+((B−A)/(1+((C/x)^D)))), which appears as equation number 205 (4 Parameter Logistic Model or Sigmoidal Dose-Response Model) in XLFit. Default constraints were used for each Parameter. IC50 was defined as the compound concentration at which 50% of enzyme activity was inhibited when compared to the no-compound control.

[2] = molecular target: Recombinant human DPP1 enzyme (Homo sapiens (Human), UniProt P53634); test: Human DPP1 Enzyme IC50 Assay; assay type: biochemical
Experimental: Recombinant human DPP1 enzyme (R&D Systems; Minneapolis, MN) was first proteolytically processed into its mature form using recombinant human cathepsin L (R&D Systems) in a buffer consisting of 20 mM citric acid pH 4.5, 150 mM NaCl, 1 mM EDTA and 10 mM DTT. Test articles were applied to activated human DPP1 enzyme in Assay Buffer (25 mM MES pH 6.0, 50 mM NaCl, 5 mM DTT) in a total reaction volume of 125 μL. 25 μL of compound in Assay Buffer plus 5% DMSO was first added to 50 μL of activated human DPP1 enzyme at a concentration of 1 ng/μL and allowed to pre-incubate for 10 minutes at 37° C. after which 50 μL of 1000 μM H-Gly-Arg-AMC substrate (Bachem; St. Torrance, CA) was added, giving final substrate concentration of 400 μM and a final DMSO concentration of 1%. Substrate cleavage was measured for 90 minutes at 37° C., with fluorescence at Excitation/Emission 350/450 nm measured every 5 minutes. DPP1 concentration was interpolated based on its activity relative to a standard curve of activated human recombinant DPP1 enzyme. IC50 values for each compound were calculated via the XLFit (IDBS Version 5.3.1.3) Add-On to Microsoft Excel using the four parameter fit equation y={A+[(B−A)]/[1+((C/x)^D)]}, which appears as equation number 205 (4 Parameter Logistic Model or Sigmoidal Dose-Response Model) in XLFit. Default constraints were used for each Parameter.

[3] = figure legends FIG. 12 and 13, read-out: IC50, in vitro inhibition of mouse DPP1
[4] = mouse DPP1 enzyme, H-Gly-Arg-AMC substrate 400 μM, Table 13, read-out: IC50
[5] = human DPP1 enzyme, Table 16, read-out: IC50, nM, Human
[6] = mouse DPP1 enzyme, Table 16, read-out: IC50, nM, Mouse

Sequence of Recombinant human DPP1 enzyme (P53634 25-134): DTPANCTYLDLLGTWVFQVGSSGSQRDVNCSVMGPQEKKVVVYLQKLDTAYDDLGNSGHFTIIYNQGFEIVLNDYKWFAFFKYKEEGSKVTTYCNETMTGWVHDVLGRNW
Sequence of Recombinant human DPP1 enzyme (P53634 231-394): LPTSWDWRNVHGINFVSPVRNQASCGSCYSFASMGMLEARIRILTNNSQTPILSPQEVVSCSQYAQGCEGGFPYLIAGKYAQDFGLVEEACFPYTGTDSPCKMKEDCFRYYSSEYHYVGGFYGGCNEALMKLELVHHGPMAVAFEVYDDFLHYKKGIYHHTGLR
Sequence of Recombinant human DPP1 enzyme (P53634 395-463): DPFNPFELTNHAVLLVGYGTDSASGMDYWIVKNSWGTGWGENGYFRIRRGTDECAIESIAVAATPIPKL
Sequence of active mouse DPP1 enzyme (P97821 25-134): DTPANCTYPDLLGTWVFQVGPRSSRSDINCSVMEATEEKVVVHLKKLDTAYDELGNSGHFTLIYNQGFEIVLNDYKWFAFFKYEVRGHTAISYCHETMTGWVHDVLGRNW
Sequence of active mouse DPP1 enzyme (P97821 231-393): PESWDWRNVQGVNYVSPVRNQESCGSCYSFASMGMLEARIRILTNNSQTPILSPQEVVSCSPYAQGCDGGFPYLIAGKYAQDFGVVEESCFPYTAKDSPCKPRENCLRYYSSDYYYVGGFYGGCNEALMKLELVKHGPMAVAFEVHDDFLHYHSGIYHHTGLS
Sequence of active mouse DPP1 enzyme (P97821 394-462): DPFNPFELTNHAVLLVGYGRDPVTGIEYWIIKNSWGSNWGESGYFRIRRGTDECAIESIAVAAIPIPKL

Cn1c(=O)oc2ccc(-c3ccc(C[C@@H](C#N)NC(=O)[C@@H]4CNCCCO4)cc3)cc21 [brensocatib, reference compound]
IC50 [1, 3]: 24.3 nM
IC50 [1, 4]: 24.3 nM

[2H]C([2H])([2H])n1c(=O)oc2ccc(-c3ccc(C[C@@H](C#N)NC(=O)C4CNC4)cc3)cc21
IC50 [2, 5]: 1510 nM

Cn1c(=O)oc2ccc(-c3ccc(C[C@@H](C#N)NC(=O)[C@@H]4C[C@@H]5COC[C@@H]5N4)cc3)cc21 [drawing 1156]
IC50 [2, 5]: 940 nM

Cn1c(=O)oc2ccc(-c3ccc(C[C@@H](C#N)NC(=O)C4(CN)CCC4)cc3)cc21
IC50 [2, 5]: 3660 nM
IC50 [1, 6]: 2770 nM

C=C1Oc2ccc(-c3ccc(C[C@@H](C#N)NC(=O)C4CNC[C@H](O)CO4)cc3)cc2N1C (stereo partly drawn)
IC50 [2, 5]: 2.3 nM
IC50 [1, 6]: 2 nM

N#Cc1ccc(-c2ccc(C[C@@H](C#N)NC(=O)C3CNC3)s2)cc1
IC50 [2, 5]: > 5000 nM
IC50 [1, 6]: > 5000 nM

Cn1c(=O)oc2ccc(-c3ccc(CC(C#N)NC(=O)[C@H]4CCNC[C@H]4N)cc3)cc21 (stereo partly drawn)
IC50 [2, 5]: 1310 nM
IC50 [1, 6]: 2430 nM

Cn1c(=O)oc2ccc(-c3ccc(C[C@@H](C#N)NC(=O)CC4(N)CCOC4)cc3)cc21 (stereo partly drawn)
IC50 [2, 5]: 2540 nM
IC50 [1, 6]: 3290 nM

Cn1c(=O)oc2ccc(-c3ccc(C[C@@H](C#N)NC(=O)C4CNC4)cc3)cc21
IC50 [2, 5]: 1270 nM
IC50 [1, 6]: 825 nM

Cn1c(=O)oc2ccc(-c3ccc(C[C@@H](C#N)NC(=O)C4CCNCC4)cc3)cc21
IC50 [2, 5]: > 5000 nM
IC50 [1, 6]: > 5000 nM

N#Cc1ccc(-c2ccc(C[C@@H](C#N)NC(=O)[C@@H]3C[C@H]4COC[C@H]4N3)cc2)cc1 [drawing 1153]
IC50 [2, 5]: 269 nM
IC50 [1, 6]: 209 nM

Cn1c(=O)oc2ccc(-c3ccc(C[C@@H](C#N)NC(=O)C4CNCC(O)C4)cc3)cc21 (stereo partly drawn)
IC50 [2, 5]: 2030 nM
IC50 [1, 6]: 2170 nM

Cn1c(=O)oc2ccc(-c3ccc(C[C@@H](C#N)NS(=O)(=O)CCN)cc3)cc21
IC50 [2, 5]: > 5000 nM
IC50 [1, 6]: > 5000 nM

Cn1c(=O)oc2ccc(-c3ccc(C[C@@H](C#N)NC(=O)[C@@H]4CNCCCO4)c(F)c3)cc21
IC50 [1, 6]: 8.1 nM

Cn1c(=O)oc2ccc(-c3ccc(C[C@@H](C#N)NC(=O)C4CC=CCNC4)cc3)cc21 (stereo partly drawn)
IC50 [2, 5]: 1760 nM
IC50 [1, 6]: 1900 nM

Cn1c(=O)oc2ccc(-c3ccc(C[C@@H](C#N)NC(=O)C4(C)CNCCO4)cc3)cc21 (stereo partly drawn)
IC50 [2, 5]: 2180 nM
IC50 [1, 6]: 3160 nM

Cn1c(=O)oc2ccc(-c3ccc(C[C@@H](C#N)NC(=O)[C@]4(C)CNCCO4)cc3)cc21
IC50 [2, 5]: > 5000 nM

Cn1c(=O)oc2ccc(-c3ccc(C[C@@H](C#N)NC(=O)C4(N)CCS(=O)(=O)C4)cc3)cc21 (stereo partly drawn)
IC50 [2, 5]: > 5000 nM
IC50 [1, 6]: > 5000 nM

N#Cc1ccc(-c2ccc(C[C@@H](C#N)NC(=O)C3CNC3)cc2)cc1
IC50 [2, 5]: > 5000 nM
IC50 [1, 6]: 4350 nM

Cn1c(=O)oc2ccc(-c3ccc(C[C@@H](C#N)NC(=O)[C@@H]4C[C@H]5OCC[C@H]5N4)cc3)cc21
IC50 [2, 5]: > 5000 nM
IC50 [1, 6]: > 5000 nM

N#Cc1ccc(-c2ccc(C[C@@H](C#N)NC(=O)[C@@H]3C[C@@H]4COC[C@@H]4N3)c(F)c2)cc1
IC50 [2, 5]: 526 nM
IC50 [1, 6]: 107 nM

Cn1c(=O)oc2ccc(-c3ccc(C[C@@H](C#N)NC(=O)[C@@H]4C[C@@H]5COC[C@@H]5N4)s3)cc21
IC50 [2, 5]: 589 nM
IC50 [1, 6]: 247 nM

C=C1Oc2ccc(-c3ccc(C[C@@H](C#N)NC(=O)C4CC5NCCCC5N4)cc3)cc2N1C (stereo partly drawn)
IC50 [2, 5]: > 5000 nM
IC50 [1, 6]: > 5000 nM

CN1COc2ccc(-c3ccc(C[C@@H](C#N)NS(=O)(=O)CCNC4CCCC4)cc3)cc21
IC50 [2, 5]: > 5000 nM
IC50 [1, 6]: > 5000 nM

Cn1c(=O)oc2ccc(-c3ccc(CC(C#N)NC(=O)C4CNC4)cc3)cc21 (stereo not drawn)
IC50 [2, 5]: 1660 nM

[2H]C([2H])([2H])n1c(=O)oc2ccc(-c3ccc(C[C@@H](C#N)NC(=O)[C@@H]4C[C@@H]5COC[C@@H]5N4)s3)cc21
IC50 [2, 5]: 664 nM

Cn1c(=O)oc2ccc(-c3ccc(C[C@@H](C#N)NC(=O)CC4CCCN4)cc3)cc21 (stereo partly drawn)
IC50 [2, 5]: > 5000 nM
IC50 [1, 6]: > 5000 nM

N#Cc1ccc(-c2ccc(C[C@@H](C#N)NC(=O)[C@@H]3C[C@@H]4COC[C@@H]4N3)s2)cc1
IC50 [2, 5]: 2270 nM
IC50 [1, 6]: 366 nM

Cn1c(=O)oc2ccc(-c3ccc(C[C@@H](C#N)NC(=O)C4CS(=O)(=O)CCN4)cc3)cc21 (stereo partly drawn)
IC50 [2, 5]: > 5000 nM
IC50 [1, 6]: > 5000 nM

Cn1c(=O)oc2ccc(-c3ccc(C[C@@H](C#N)NC(=O)[C@@H]4CNCCCO4)cc3)cc21 [drawing 1149]
IC50 [1, 6]: 27 nM

Cn1c(=O)oc2ccc(-c3ccc(C[C@@H](C#N)NC(=O)C4CNCCN4)cc3)cc21 (stereo partly drawn)
IC50 [2, 5]: > 5000 nM
IC50 [1, 6]: > 5000 nM

C=C1Oc2ccc(-c3ccc(C[C@@H](C#N)NC(=O)CC4(N)CCCS(=O)(=O)C4)cc3)cc2N1C (stereo partly drawn)
IC50 [2, 5]: > 5000 nM

C[C@@H]1NCCC[C@@H]1C(=O)N[C@H](C#N)Cc1ccc(-c2ccc3oc(=O)n(C)c3c2)cc1
IC50 [2, 5]: 1320 nM

Cn1c(=O)oc2ccc(-c3ccc(C[C@@H](C#N)NC(=O)[C@@H]4C[C@H]5C[C@H]5N4)cc3)cc21 [drawing 1152]
IC50 [2, 5]: 30.4 nM
IC50 [1, 6]: 19.6 nM

N#Cc1ccc(-c2ccc(C[C@@H](C#N)NC(=O)[C@@H]3C[C@H]4COC[C@H]4N3)cc2)cc1 [IWD-004, (2S,3αR,6αS)—N—((S)-1-cyano-2-(4′-cyano-[1,1′-biphenyl]-4-yl)ethyl)hexahydro-1H-furo[3,4-b]pyrrole-2-carboxamide]
IC50 ([2]; figure legends FIG. 14 and 15, read-out: IC50, in vitro inhibition of human DPP1): 245 nM
IC50 [1, 3]: 209 nM
IC50 [1, 4]: 209 nM

N#Cc1ccc(-c2ccc(C[C@@H](C#N)NC(=O)[C@H]3C[C@@H]4COC[C@@H]4N3)cc2)cc1
IC50 [2, 5]: > 5000 nM
IC50 [1, 6]: > 5000 nM

[2H]C([2H])([2H])n1c(=O)oc2ccc(-c3ccc(C[C@@H](C#N)NC(=O)C4CNC4)s3)cc21
IC50 [2, 5]: 4940 nM

Cn1c(=O)oc2ccc(-c3ccc(C[C@@H](C#N)NS(N)(=O)=O)cc3)cc21
IC50 [2, 5]: > 5000 nM
IC50 [1, 6]: > 5000 nM

Cn1c(=O)oc2ccc(-c3ccc(C[C@@H](C#N)NC(=O)CC(N)C4CC4)cc3)cc21 (stereo partly drawn)
IC50 [2, 5]: > 5000 nM
IC50 [1, 6]: > 5000 nM

Cn1c(=O)oc2ccc(-c3ccc(C[C@@H](C#N)NC(=O)C4C=CCNC4)cc3)cc21 (stereo partly drawn)
IC50 [2, 5]: > 5000 nM
IC50 [1, 6]: > 5000 nM

Cn1c(=O)oc2ccc(-c3ccc(CC(C#N)NC(=O)[C@@]4(C)CNCCO4)cc3)cc21 (stereo partly drawn)
IC50 [2, 5]: 1040 nM

N#Cc1ccc(-c2ccc(C[C@@H](C#N)NC(=O)C3CNC3)c(F)c2)cc1
IC50 [2, 5]: 1560 nM
IC50 [1, 6]: 1850 nM

CO[C@H]1CNC[C@@H](C(=O)N[C@H](C#N)Cc2ccc(-c3ccc4oc(=O)n(C)c4c3)cc2)OC1
IC50 [2, 5]: 745 nM
IC50 [1, 6]: 583 nM

N#Cc1ccc(-c2ccc(C[C@@H](C#N)NC(=O)C3C[C@@H]4COC[C@@H]4N3)cc2)cc1 (stereo partly drawn)
IC50 [2, 5]: 2610 nM

Cn1c(=O)oc2ccc(-c3ccc(CC(C#N)NC(=O)[C@H]4CCNC[C@@H]4N)cc3)cc21 (stereo partly drawn)
IC50 [2, 5]: > 5000 nM
IC50 [1, 6]: > 5000 nM

Cn1c(=O)oc2ccc(-c3ccc(C[C@@H](C#N)NC(=O)C4CNCC45CCC5)cc3)cc21 (stereo partly drawn) [drawing 1229]
IC50 [2, 5]: 1220 nM

C[C@H]1NCCC[C@H]1C(=O)N[C@H](C#N)Cc1ccc(-c2ccc3oc(=O)n(C)c3c2)cc1
IC50 [2, 5]: 4480 nM
